Tests used:
[1] = test system: renal cancer cells (surgical specimen); experiment: Proliferation of cells from a surgical renal cancer specimen; type: cell-based; settings: about 24-30 hrs; chemotherapies at high concentrations of approximately 10-100 fold
Experimental: Cells were incubated with purified developmental peptides for approximately 24-30 hrs. While developmental peptides were effective in inhibiting proliferation of the renal cancer cells, two standardly used chemotherapies (a 5-FU regimen and a vinblastine regimen) remained ineffective, even at a high concentrations of approximately 10-100 fold.

[2] = test system: renal carcinoma cells (RCC); experiment: Viability of short-term cultured renal carcinoma cells (P1 and JC-1 staining); type: cell-based
Experimental: Mitochondrial membrane potential. A stock solution of JC-1 dye (100 μg/ml in DMSO) is prepared. Cells are preincubated with the peptide of SEQ ID NO: 2 for up to 24 hours. JC-1 reagent is diluted just prior to use. For each assay, 100 μl of stock solution is diluted to 1 ml using pre-warmed cell culture medium and the solution is vortexed. 40 μl of diluted JC-1 is added to each well and incubated at 37° C. in 5% CO2 incubator for 25-30 min. Medium is replaced with pre-warmed PBS. Samples are detected by fluorescent signals by using flow cytometry results compared to buffer only treated controls. JC-1 reagent accumulates in the intact mitochondria, giving off a bright red fluorescence. In apoptotic cells, JC-1 reagent cannot accumulate in the mitochondria due to the altered mitochondrial membrane potential.
FIG. 2 further confirms developmental peptides effectiveness as compared to chemotherapy. Short-term cultured renal carcinoma cells (RCC) were incubated with developmental peptides. […] While not wishing to be bound to theory, the anti-proliferative effect of developmental peptides is thought to be due to the developmental peptides induction of mitochondrial alterations in the malignant cells, as analyzed using JC-1 staining, a process which invariably leads to cell death. […] Thus, low concentrations of developmental peptides may enhance the efficacy of a chemotherapy regimen.

[3] = test system: MCF-7 breast cancer cells; experiment: 3H thymidine incorporation assay on MCF-7 cells; type: cell-based; settings: about 1.5-12 mg/ml, low concentrations
Experimental: Isolation of the 9AA peptide from the adult mammalian liver. Fresh adult rabbit liver tissues were collected and homogenized on ice with H20. The samples were centrifuged at 15,000 g and the sample was filtered using Amicon filters 3000-10000 Da, <3000-500, and <500. Fractions collected were tested for activity using the MCF-7 cells. […] Separation by reverse phase HPLC yielded a 90% inhibition of cancer cells.
In a similar manner adult frozen porcine liver was collected and homogenized with H2O at 4° C. The suspension was centrifuged at 15,000 g and the pellet discarded. The suspension was filtered and the fraction <3000 Da was collected and run using reversed phase HPLC C18 column with a 0-95% acetonitrile gradient. […] Antiproliferative activity was tested by collecting the fractions, drying and suspending the sample in media and adding to MCF7 cells for 48 hours. Incorporation of 3H thymidine into cellular DNA of MCF-7 breast cancer cells was used to determine the anti-proliferative activity.
3H Thymidine assay. […] Cell from each well were transferred to a scintillation vial and counted in a Beckman Counter Model LS-133 scintillation counter.
(§1) A breast cancer cell line (MCF-7) and human mammary epithelial cells (HMEC) were incubated with the 9 AA developmental peptides of SEQ ID NO: 2. […] The antiproliferative response was repeated and analyzed using the XTT method. […]

[4] = test system: human mammary epithelial cells (HMEC); experiment: 3H thymidine labeling of DNA in normal HMEC cells; type: cell-based; settings: about 1.5-12 mg/ml, low concentrations
Experimental: 3H Thymidine assay. In particular the tritiated thymidine assays were performed as follows. 10,000 cells were plated in 1 ml of RPMI 1640 medium containing 10% fetal bovine serum in 24-well plates. The cultures were incubated for 24 hours at 37 C, 5% carbon dioxide. The peptide was added to each corresponding well at different doses and allowed to incubate for 72 hours. The cells were then exposed to tritiated thymidine at a concentration of 1 uCi/ml (ICN, cat #2403905) and incubated at 37 C for 4 hours. The cells were washed twice with cold PBS to remove non-incorporated thymidine. The cells were treated twice with 10% trichloracetic acid (Fisher, lot #94276913), 1 ml per well. The cells were then disrupted by treatment with 10% sodium lauryl sulfate (Sigma, Cat#L-3771) at 500 ul/well. Cell from each well were transferred to a scintillation vial and counted in a Beckman Counter Model LS-133 scintillation counter.
as §1, with “2. 3H thymidine labeling of DNA was used to analyze the anti-proliferative effect of developmental peptides using concentrations in the range of about 1.5-12 mg/ml developmental peptides.” for “2.”

[5] = test system: MCF-7 cells; experiment: XTT method on MCF-7 cells; type: cell-based; settings: about 1.5 mg/ml
Experimental: (§2) XTT method. A commercial (Roche, N.J.) kit was used. At the end of the experiment the XTT labeling mixture was coupled to the electron reagent coupling and was added to the cultured cells in microplate for 4 hours. The microplate was placed in an ELISA microplate reader (Molecular devices, Menlo Park, Calif.).
(§3) A breast cancer cell line (MCF-7) and human mammary epithelial cells (HMEC) were incubated with the 9 AA developmental peptides of SEQ ID NO: 2. 3H thymidine labeling of DNA was used to analyze the anti-proliferative effect of developmental peptides using concentrations in the range of about 1.5-12 mg/ml developmental peptides. […] The antiproliferative response was repeated and analyzed using the XTT method. […] Finally, this same analysis was repeated using resistant prostate cancer cells, the PC3 cell line, which are androgen receptor negative cells. Developmental peptides was added to the cells using concentrations of about 6-25 mg/ml for 24 hours in the presence of 3H thymidine to measure the effect of developmental peptides on cell proliferation.

[6] = test system: HMEC cells; experiment: XTT method on HMEC cells; type: cell-based, human; settings: about 1.5 mg/ml
Experimental: as §2, §3

[7] = test system: PC3 cell line (androgen receptor negative prostate cancer cells); type: cell-based; settings: about 12-25 mg/ml, 24 hours
[8] = test system: rat embryo cultures; experiment: Rat embryo culture teratogenicity (roller bottle system); settings: 48 hours, about 500 μg/ml
Experimental: Rat embryo cultures were exposed to synthetic developmental peptides of about 9 AA (about 500 μg/ml) for 48 hours (FIG. 6).

## O=c1[nH]cc(F)c(=O)[nH]1 [5-FU]
[1]
  inhibition of renal cancer cell proliferation: ineffective

## COc1cc([C@@H]2c3cc4c(cc3[C@@H](O[C@@H]3O[C@@H]5CO[C@@H](C)O[C@H]5[C@H](O)[C@H]3O)[C@H]3COC(=O)[C@H]23)OCO4)cc(OC)c1O [etoposide]
[2]
  cell viability / cell death in RCC, P1 staining: failed to induce cell death

## CN(Cc1cnc2nc(N)nc(N)c2n1)c1ccc(C(=O)N[C@@H](CCC(=O)O)C(=O)O)cc1 [methotrexate]
[2]
  cell viability / cell death in RCC, P1 staining: failed to induce cell death

## CC(=O)O[C@H]1C(=O)[C@@]2(C)[C@H]([C@H](OC(=O)c3ccccc3)[C@]3(O)C[C@H](OC(=O)[C@H](O)[C@@H](NC(=O)c4ccccc4)c4ccccc4)C(C)=C1C3(C)C)[C@]1(OC(C)=O)CO[C@@H]1C[C@@H]2O [paclitaxel]
[2]
  cell viability / cell death in RCC, P1 staining: failed to induce cell death

## CC[C@]1(O)C[C@@H]2CN(CCc3c([nH]c4ccccc34)[C@@](C(=O)OC)(c3cc4c(cc3OC)N(C)[C@H]3[C@@](O)(C(=O)OC)[C@H](OC(C)=O)[C@]5(CC)C=CCN6CC[C@]43[C@@H]65)C2)C1 [vinblastine]
[1]
  inhibition of renal cancer cell proliferation: ineffective

## H-VLGKRIKGT-OH [9 AA developmental peptides, N-Val-Leu-Gly-Lys-Arg-Ile-Lys-Gly-Thr-OH]
[3]
  antiproliferative response, 3H thymidine: antiproliferative response was maintained
[4]
  effect on normal HMEC cells, 3H thymidine: absence of any harmful or negative effect
[5]
  antiproliferative effect, XTT: maintained the antiproliferative effect
[6]
  effect on HMEC cells, XTT: minimal effect
[7]
  inhibition of PC3 proliferation, 3H thymidine: approximately 98%
[8]
  development of viscera yolk sac and embryo: developed normally
  teratogenicity: not teratogenic
